Laboratory results as given in ChEMBL document CHEMBL1128042, “The effect of fluorine substitution on the haemotoxicity of Primaquine” (1995).

Species on record: Mus musculus
Experiment: Antimalarial activity was evaluated against Plasmodium berghei in female CD1 mice (Mus musculus) (20-25g)
Type: functional

Row | SMILES | ED50 [µmol/kg]
1 | COc1cc(NC(C)CCCN)c2ncccc2c1F (configuration not stated) | 7.78
2 | COc1cc(NC(C)CCCN)c2ncccc2c1 (configuration not stated) [PRIMAQUINE] | 2.2
